Read-outs that look alike come from different tables or passages of the source. Values belong to the molecule of their own block, whether it stands above or below them.
Columns and labels:
[1] = system: L. amazonensis axenic amastigotes; set-up: method as in PMID 23457021; settings: read-out: IC50 against axenic amastigotes of L. amazonensis; cited from earlier work
[2] = system: RAW 264.7 macrophages infected with Leishmania amazonensis; test: Treatment of infected macrophages (intra-macrophagic amastigotes, 72 h); assay type: cell-based; settings: for EC50: infected RAW 264.7 macrophages, read-out: Intramacrophagic Amastigotes EC50
Description: In a 24-well plate with 13 mm round sterile cover slips, RAW 264.7 macrophages were added (at a concentration of 10^5 cells to 1 mL of supplemented DMEM. For cell adhesion, the plates were incubated at 37 °C and 5% CO2 for 3 h. Three washes were then performed with PBS at 37 °C to discard non-adherent cells, after which 1 mL of DMEM supplemented (stationary phase) promastigote forms of L. amazonensis was added at the ratio of 10 promastigotes per macrophage. The plate was then incubated at 5% CO2 and 37 °C for 4 h. After infection, the medium was aspirated and the treatment was added using 1 mL of DMEM supplemented with β-ocimene (3.12–25 μM) with the reference drugs, meglumine antimoniate (1.56–200 μM) and amphotericin B (0.031–2 μM), this was subsequently incubated at 37 °C and 5% CO2 for 72 h. Finally, the coverslips were removed, fixed, stained, and mounted on permanent slides using Entellan. The number of infected macrophages and the number of parasites per macrophage were counted: 300 cells were evaluated on each slide at 1000× magnification. The infection index was calculated by multiplying the number of infected macrophages by the number of amastigotes per infected macrophage. The negative control was performed using DMEM with 0.5% DMSO. The supernatant was removed at the end of the experiment and kept at −20 °C for later use in nitric oxide dosing tests.

[3] = Cytotoxic effect on mammalian cells (MTT, 72 h), RAW 264.7; assay type: cell-based; settings: mouse, RAW 264.7 macrophages; for CC50 at 72 h: pH 7.2, MTT
Description: (§1) RAW 264.7 lineage macrophages (available from the cell bank in Rio de Janeiro, Brazil) were used, grown in sterile bottles with DMEM medium, pH 7.2 containing 10% FBS and 1% penicillin 100 U/mL and streptomycin 100 μg/mL, and kept in an oven at 37 °C and 5% CO2.
(§2) In a 96-well plate, RAW 264.7 macrophages were plated at 10^5 cells per well in 100 μL of supplemented DMEM medium. The plate was incubated for 3 h at 37 °C and 5% CO2 for cell adhesion. Afterwards, to remove non-adhered cells, washing with PBS (phosphate-buffered saline solution) was performed. Furthermore, 100 μL of DMEM supplemented with β-ocimene (3.12–400 μM), and the reference drugs, meglumine antimoniate (250–2000 μM) and amphotericin B (0.062–0.5 μM) were then added to the wells, with oven incubation at 37 °C, and 5% CO2 for 72 h. Then, 10 μL of MTT (5 mg/mL) per well was then added, being kept for another 4 h in an oven at 37 °C and 5% CO2. The supernatant was removed, and 100 µL of DMSO was added to all wells. After 30 min of stirring, readings were taken at 540 nm. DMEM supplemented with 0.5% DMSO was used as a negative control and considered as 100% macrophage viability. The selectivity index for each treatment was calculated by dividing the CC50 by the IC50, or EC50 [32].

[4] = system: Leishmania (Leishmania) amazonensis axenic amastigotes; test: microbe, parasite or virus in culture; assay type: cell-based; settings: 72 h; for EC50: MTT
Description: (§3) Strains of Leishmania (Leishmania) amazonensis (IFLA/BR/67/PH8) (promastigote form) were cultivated in Schneider’s insect medium (supplemented with 10% FBS, and 1% antibiotic solution), at 26 °C, and at pH 7, in a biological oxygen demand (BOD) incubator. To transform the promastigote forms into axenic amastigotes, the temperature was increased to 32 °C and the pH of the medium was adjusted to 5.5 [14].
(§4) Promastigote and axenic amastigote growth inhibition was tested as previously described by DIAS et al.. In a 96-well plate, parasites were seeded at 10^6 parasites per well in 100 μL of supplemented Schneider medium. The parasites were treated with differing concentrations of β-ocimene (1.56–12.5 μM), and reference drugs, meglumine antimoniate (500–40,000 μM) and amphotericin B (0.062–0.5 μM). The plates were incubated in a BOD incubator at 26 °C for 72 h. Afterwards, 10 µL of MTT (5 mg/mL) was added to each well, and the plate was incubated again for 4 h, when 50 µL of 10% SDS was added. Absorbances were then measured using an ELISA plate reader (BioSystems model ELx800, Curitiba, PR, Brazil) at 540 nm. The negative control consisted of Schneider medium with 0.5% DMSO and was considered as 0% inhibition.

[5] = system: Leishmania (Leishmania) amazonensis promastigotes; test: microbe, parasite or virus in culture; assay type: cell-based; settings: 72 h; for IC50: MTT
Description: as §3, §4

[6] = Cytotoxic effect on mammalian cells, Vero; assay type: cell-based; settings: African green monkey, Vero cells
[7] = system: L. infantum promastigotes; set-up: method as in PMID 31151304; settings: read-out: IC50 against L. infantum promastigotes; cited from earlier work
[8] = system: L. amazonensis promastigotes; set-up: method as in PMID 19321295; settings: read-out: IC50 against L. amazonensis promastigotes; cited from earlier work
[9] = system: RAW 264.7 macrophages; test: Lysosomal activity (neutral red uptake); assay type: cell-based; settings: 12.5 and 25 µM, 72 h, macrophages not stimulated by L. amazonensis
Description: RAW 264.7 macrophages were added (10^5 cells per well) to the 96-well plate in 100 μL of DMEM with different concentrations of β-ocimene (3.12–25 μM). The plate was incubated for 72 h at 37 °C and 5% CO2. Afterwards, 10 μL of neutral red 0.2% DMSO solution was added and incubated for 30 min. The supernatant was then removed, and the wells were washed with 0.9% saline at 37 °C, and 100 μL of extraction solution was added to dissolve the neutral red inside the lysosomal secretion vesicles. After 30 min on a Kline shaker, the plate was read at 540 nm.

[10] = system: macrophages infected with L. amazonensis; test: Measurement of reactive oxygen species (H2DCFDA); assay type: cell-based; settings: RAW 264.7 macrophages infected with L. amazonensis, 72 h
Description: ROS levels, as produced by the macrophages infected with L. amazonensis and treated with β-ocimene, were determined by the H2DCFDA test. Macrophages were infected according to Section 2.5 and treated with β-ocimene (3.12–12.6 µM) for 72 h. At the end of the period, 10 µL of 20 µM H2 DCFDA dye was added. The plate was incubated at 37 °C for 30 min (in the dark), and the fluorescence intensity was measured using a spectrofluorometer (FLx800) with excitation at 485 nm and emission at 528 nm.

[11] = system: Leishmania amazonensis promastigote plasmatic membrane; assay type: cell-based; settings: not told
Description: Plasma membrane integrity in promastigote forms of L. amazonensis treated with β-ocimene was evaluated using the SYTOX green dye method. Promastigote forms in logarithmic growth were seeded in Schneider medium and exposed to β-ocimene at concentrations corresponding to IC50, 2 × IC50 and 4 × IC50 in the presence of SYTOX green dye (5 μM) for 7 h at 26 °C in a BOD incubator. The plates were then read in a fluorescence reader with an emission filter of 523 nm and excitation at 488 nm.

[12] = system: RAW 264.7 macrophages uninfected and infected with Leishmania amazonensis; test: Th1/Th2 cytokine (ELISA) and nitric oxide (Griess) production in macrophage supernatants; assay type: cell-based; settings: 72 h
Description: Modulation of Th1 (TNF-α, IL-12), Th2 (IL-10, IL-6), and NO cytokine production was investigated in the supernatants of infected macrophages, whether treated or untreated with β-ocimene. Cytokine concentration (pg/mL) in macrophage supernatants was determined using the ELISA sandwich technique according to the manufacturer’s (eBioscience) instructions, using interpolation with a standard curve of recombinant cytokines. Optical density was read at 450 nm using a microplate spectrophotometer.
Nitrite levels from the supernatants of the infected macrophages, whether treated or untreated with β-ocimene, were used indirectly to estimate NO production. The NO concentration (µM) was determined using the Griess reaction following a previously described methodology, by interpolation with a standard curve with NaNO2.
LPS (1 μg/mL) plus IFN-γ (1000 U/mL) were used as a positive control.

[13] = system: Promastigote forms of L. amazonensis; test: Parasite morphological evaluation using atomic force microscopy (AFM); assay type: cell-based, Leishmania amazonensis; settings: 1 × IC50 and 2 × IC50, 72 h
Description: Promastigote forms of L. amazonensis were grown in 96-well plates at a concentration of 10^6 per well in complete Schneider medium. β-ocimene was added at concentrations equivalent to IC50, 2 × IC50, and 4 × IC50, and incubated at 26 °C for 72 h in BOD, and the parasites were then washed twice with ice-cold PBS (under 1100× g for 15 min at room temperature), and then fixed with 2.5% (v/v) glutaraldehyde in PBS, pH 7.2, for 1 h. Morphological analysis using AFM (TT-AFM equipment, AFM Workshop-USA), at a resonant frequency of approximately 242 kHz, was then performed.

[14] = system: RAW 264.7 macrophages; test: Phagocytosis assay (stained zymosan); assay type: cell-based; settings: 3.12–25 μM, 72 h, macrophages not stimulated by L. amazonensis
Description: RAW 264.7 macrophages were plated in a 96-well plate at 10^5 cells per well in 100 μL of DMEM medium containing different concentrations of β-ocimene (3.12–25 μM). The plate was incubated for 72 h at 37 °C and 5% CO2; after which 10 μL of stained zymosan per well was added, and the plate conditioned for 30 min at 37 °C. Then, 100 μL of Baker’s fixative (4% v/v formaldehyde, 2% w/v sodium chloride, and 1% w/v calcium acetate in distilled water) was added to stop phagocytosis, and 30 min later, the plate was washed with 0.9% saline to remove the zymosan not phagocytized by macrophages. Afterwards, the supernatant was removed and 100 μL of extraction solution was added and solubilized in a Kline shaker. Absorbances were measured at 540 nm.

[15] = system: RAW 264.7 macrophages; test: Cytotoxic effect on mammalian cells (MTT, 72 h), RAW 264.7; assay type: cell-based; settings: MTT
Description: as §1, §2

[16] = system: Vero cells; test: Cytotoxic effect on mammalian cells, Vero; assay type: cell-based
[17] = Leishmania amazonensis, RAW264.7, 72 h
[18] = Leishmania, read-out: % Cytotoxicity Axenic Amastigotes
[19] = Leishmania, read-out: % Cytotoxicity Promastigotes
[20] = RAW 264.7 macrophages infected with L. amazonensis

Molecule: NC(=S)NN=Cc1ccc([N+](=O)[O-])cc1 [4-nitrobenzaldehyde thiosemicarbazone]
IC50 [1]: 8 µM

EC50 [2, 17]: 0.13 µM
Molecule: C[C@@H]1[C@H](O)[C@@H](C)/C=C/C=C/C=C/C=C/C=C/C=C/C=C/[C@H](O[C@@H]2O[C@H](C)[C@@H](O)[C@H](N)[C@@H]2O)C[C@@H]2O[C@](O)(C[C@@H](O)C[C@@H](O)[C@H](O)CC[C@@H](O)C[C@@H](O)CC(=O)O[C@H]1C)C[C@H](O)[C@H]2C(=O)O [Amphotericin B, reference compound]
CC50 at 72 h [3]: 0.39 ± 0.03 µM | EC50 ([4]; Leishmania): 0.51 ± 0.02 µM | IC50 ([5]; Leishmania): 0.35 ± 0.09 µM | CC50 [6]: 2.46 ± 0.6 µM

Molecule: Cc1ccc(C(C)C)cc1O [carvacrol]
IC50 [7]: 65 µM

Molecule: C=C(C)[C@H]1CC=C(C)CC1 [limonene]
IC50 [8]: 252 µM

Molecule: Cc1ccc(C(C)C)c(O)c1 [thymol]
IC50 [7]: 48 µM

EC50 [2, 17]: 0.89 ± 0.03 µM
Molecule: C=C/C(C)=C/CC=C(C)C [β-ocimene, beta-3,7-dimethyl-1,3,6-octatriene]
lysosomal volume (neutral red retention) [9]: increase in the volume of lysosomal vesicles | times more selective than amphotericin B (selectivity index) ([2]; intra-macrophagic amastigote form): 42.88 times | infection index (infection rate) ([2]; low concentrations, 72 h): able to reduce | number of amastigotes per macrophage ([2]; low concentrations, 72 h): able to reduce | percentage of infected macrophages ([2]; low concentrations, 72 h): able to reduce | cytotoxicity at 72 h, 50 µM ([3]; pH 7.2, 50 µM): 1.17 ± 0.09% | cytotoxicity at 72 h, 100 µM ([3]; pH 7.2, 100 µM): 46.3 ± 4.11% | cytotoxicity at 72 h, 200 µM ([3]; pH 7.2, 200 µM): 56.6 ± 5.92% | cytotoxicity at 72 h, 400 µM ([3]; pH 7.2, 400 µM): 81.7 ± 8.16% | CC50 at 72 h [3]: 114 ± 8.2 µM | cytotoxicity at 1.56 µM [4, 18]: 59.1 ± 2.4% | cytotoxicity at 3.12 µM [4, 18]: 79.1 ± 3.7% | cytotoxicity at 6.25 µM [4, 18]: 100% | cytotoxicity at 12.5 µM [4, 18]: 100% | EC50 ([4]; Leishmania): 1.12 ± 0.05 µM | cytotoxicity at 1.56 µM [5, 19]: 27.3 ± 2.16% | cytotoxicity at 3.12 µM [5, 19]: 70.2 ± 2.2% | cytotoxicity at 6.25 µM [5, 19]: 81.4% | cytotoxicity at 12.5 µM [5, 19]: 100% | IC50 ([5]; Leishmania): 2.78 ± 0.17 µM | ROS production [10]: increase | plasmatic membrane permeability (SYTOX green fluorescent signal) [11]: significant increase in permeability | CC50 [6]: 299 ± 7.17 µM | cytotoxicity at 50 µM ([6]; 50 µM): 1.14 ± 0.1% | cytotoxicity at 100 µM ([6]; 100 µM): 6.04 ± 0.41% | cytotoxicity at 200 µM ([6]; 200 µM): 36.2 ± 4.26% | cytotoxicity at 400 µM ([6]; 400 µM): 69.2 ± 4.9% | IL-6 levels [12, 20]: decrease | IL-10 levels [12, 20]: decrease in levels of IL-10 | IL-12 levels [12, 20]: did not affect IL-12 levels | NO production [12, 20]: increase | TNF-α production [12, 20]: increase in the production of TNF-α | cytokine levels of uninfected macrophages compared to the control ([12]; uninfected RAW 264.7 macrophages): no significant differences | morphological alterations (AFM) [13]: Loose membrane texture and abnormalities in the cell shape | phagocytic activity (zymosan particles) [14]: no increase in phagocytosis of zymosan particles

Molecule: Meglumine antimoniate [reference compound]
EC50 ([2]; 72 h): 578 ± 19.1 µM | CC50 [15]: 15900 µM | EC50 [4]: 1730 ± 36.8 µM | IC50 [5]: 2150 ± 31 µM | CC50 [16]: 22800 µM
